The results in this text go back to US7491794B2, “Macrocyclic compounds as inhibitors of viral replication” (Intermune, Inc., priority 2003, dated 2009).

Test [1] has as its target T1, NS3-NS4A protease (Hepatitis C virus genotype 1a, UniProt P27958).
T1 construct: Recombinant E. coli or Baculovirus full-length NS3 was diluted to 3.33 μM with assay buffer; made in house; host or cells: E. coli or baculovirus (BV) system
Kind of test: NS3-NS4A protease assay (NS3 inhibition assay, RETS1 substrate), Section B. Type of test: biochemical. To be noted: read-out: NS3-NS4A IC50. In short, it runs like this:
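Full-length NS3 (E. coli or baculovirus) precomplexed with excess NS4A-2 peptide, run at 2 nM (E. coli) or 3 nM (BV) NS3; compounds pre-incubated 10 min at room temperature before RETS1 substrate. Fluorescence (ex 335/em 495 nm) read kinetically 30 min; IC50 from four-parameter fit, converted to Ki via Ki=IC50/(1+[S]/Km).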

Test [2] relates to HCV sub-genomic replicon, GS4.3. Kind of test: Quantitation by ELISA of NPTII in the HCV sub-genomic replicon, GS4.3, Section B. Type of test: cell-based. Conditions: Hepatitis C virus; GS4.3 cells, 72 h incubation; read-out: Replicon EC50. In short, it runs like this:
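GS4.3 cells (HuH-7 carrying HCV 1377/NS3-3′ replicon) were treated 72 h at 37 °C with inhibitors in 3-fold dilutions, 1% DMSO, no G418. Lysate NPTII was measured by ELISA (TMB, 450 nm). Signal as % of DMSO control; EC50 from 4-parameter fit.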

Each structure is given as a SMILES string.

T1 sequence (P27958 1027-1657): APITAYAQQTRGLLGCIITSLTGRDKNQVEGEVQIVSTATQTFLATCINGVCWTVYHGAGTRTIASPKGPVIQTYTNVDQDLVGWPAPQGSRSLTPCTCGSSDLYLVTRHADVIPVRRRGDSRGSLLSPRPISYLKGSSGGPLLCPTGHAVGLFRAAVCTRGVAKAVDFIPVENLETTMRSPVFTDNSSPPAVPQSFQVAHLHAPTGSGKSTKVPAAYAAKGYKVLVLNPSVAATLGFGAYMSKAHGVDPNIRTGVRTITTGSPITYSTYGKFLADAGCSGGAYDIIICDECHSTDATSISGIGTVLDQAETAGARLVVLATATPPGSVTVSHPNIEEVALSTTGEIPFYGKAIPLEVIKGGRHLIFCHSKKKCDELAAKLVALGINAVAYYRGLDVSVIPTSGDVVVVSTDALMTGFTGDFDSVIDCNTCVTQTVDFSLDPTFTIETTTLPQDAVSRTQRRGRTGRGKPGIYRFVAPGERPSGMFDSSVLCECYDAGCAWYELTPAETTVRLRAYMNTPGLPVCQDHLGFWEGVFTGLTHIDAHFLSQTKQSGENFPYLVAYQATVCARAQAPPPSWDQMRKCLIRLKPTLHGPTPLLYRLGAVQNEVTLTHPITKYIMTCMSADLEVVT

On to `O=C(N[C@H]1CCCCC/C=C\[C@@H]2C[C@@]2(C(=O)NS(=O)(=O)C2CC2)NC(=O)[C@@H]2C[C@@H](OC(=O)N3Cc4ccccc4C4(CCC4)C3)CN2C1=O)O[C@@H]1CCOC1` [AR00314635, (1S,4R,6S,14S,18R)-4,4-Spirocyclobutyl-3,4-dihydro-1H-isoquinoline-2-carboxylic acid 4-cyclopropanesulfonylaminocarbonyl-2,15-dioxo-14-(tetrahydro-furan-3-yloxycarbonylamino)-3,16-diaza-tricyclo[14.3.0.0^4,6]nonadec-7-en-18-yl ester], for which the IC50 in test [1] was below 100 nM. Also, the EC50 in test [2] is below 100 nM.

Consider `O=C(N[C@H]1CCCCC/C=C\[C@@H]2C[C@@]2(C(=O)O)NC(=O)[C@@H]2C[C@@H](OC(=O)N3CCc4c(F)cccc4C3)CN2C1=O)OC1CCCC1` [AR00304074, (1S,4R,6S,14S,18R)-14-Cyclopentyloxycarbonylamino-18-(5-fluoro-3,4-dihydro-1H-isoquinoline-2-carbonyloxy)-2,15-dioxo-3,16-diaza-tricyclo[14.3.0.0^4,6]nonadec-7-ene-4-carboxylic acid], for which the IC50 in test [1] was below 1000 nM. For the same molecule, the EC50 in test [2] is below 10000 nM.

As for `CC(C)(C)OC(=O)N[C@H]1CCCCC/C=C\[C@@H]2C[C@@]2(C(=O)NS(=O)(=O)C2CC2)NC(=O)[C@@H]2C[C@@H](OC(=O)N3Cc4ccc(Cl)cc4C3)CN2C1=O` [AR00320119, (1S,4R,6S,14S,18R)-5-Chloro-1,3-dihydro-isoindole-2-carboxylic acid 14-tert-butoxycarbonylamino-4-cyclopropanesulfonylaminocarbonyl-2,15-dioxo-3,16-diaza-tricyclo[14.3.0.0^4,6]nonadec-7-en-18-yl ester], the IC50 in test [1] was below 100 nM. In addition, the EC50 in test [2] is below 100 nM.

On to `CC(C)(C)OC(=O)N[C@H]1CCCCC/C=C\[C@@H]2C[C@@]2(C(=O)NS(=O)(=O)c2ccccc2)NC(=O)[C@@H]2C[C@@H](OC(=O)N3CCc4ccccc4C3)CN2C1=O` [AR00320547, (1S,4R,6S,14S,18R)-3,4-Dihydro-1H-isoquinoline-2-carboxylic acid 4-benzenesulfonylaminocarbonyl-14-tert-butoxycarbonylamino-2,15-dioxo-3,16-diaza-tricyclo[14.3.0.0^4,6]nonadec-7-en-18-yl ester], for which the IC50 in test [1] is below 100 nM. For the same molecule, the EC50 in test [2] is below 100 nM.

As to `CC1CN(C(=O)O[C@@H]2C[C@H]3C(=O)N[C@]4(C(=O)NS(=O)(=O)C5CC5)C[C@H]4/C=C\CCCCC[C@H](NC(=O)OC(C)(C)C)C(=O)N3C2)Cc2ccccc21` (stereo partly drawn) [AR00312026, (1S,4R,6S,14S,18R)-4-Methyl-3,4-dihydro-1H-isoquinoline-2-carboxylic acid 14-tert-butoxycarbonylamino-4-cyclopropanesulfonylaminocarbonyl-2,15-dioxo-3,16-diaza-tricyclo[14.3.0.0^4,6]nonadec-7-en-18-yl ester], in test [1], the IC50 is below 100 nM. Besides, the EC50 in test [2] was below 100 nM.

For the molecule `CC(C)(C)OC(=O)N[C@H]1CCCCC/C=C\[C@@H]2C[C@@]2(C(=O)O)NC(=O)[C@@H]2C[C@@H](OC(=O)N3CCc4ccc(N)cc4C3)CN2C1=O` [AR00301749, (1S,4R,6S,14S,18R)-18-(7-Amino-3,4-dihydro-1H-isoquinoline-2-carbonyloxy)-14-tert-butoxycarbonylamino-2,15-dioxo-3,16-diaza— tricyclo[14.3.0.0^4,6]nonadec-7-ene-4-carboxylic acid], the IC50 in test [1] was below 1000 nM. Besides, in test [2], the EC50 is below 10000 nM.

Turning to `CC1CN(C(=O)O[C@@H]2C[C@H]3C(=O)N[C@]4(C(=O)O)C[C@H]4C=CCCCCC[C@H](NC(=O)OC(C)(C)C)C(=O)N3C2)Cc2ccccc21` (stereo partly drawn) [AR00304067, (1S,4R,6S,14S,18R)-14-tert-Butoxycarbonylamino-18-(4-methyl-3,4-dihydro-1H-isoquinoline-2-carbonyloxy)-2,15-dioxo-3,16-diaza-tricyclo[14.3.0.0^4,6]nonadec-7-ene-4-carboxylic acid], in test [1], the concentration for half-maximal inhibition (IC50) was below 1000 nM. Besides, the EC50 in test [2] is below 10000 nM.

Turning to `CC(C)(C)Nc1nc2c(s1)CN(C(=O)O[C@@H]1C[C@H]3C(=O)N[C@]4(C(=O)O)C[C@H]4/C=C\CCCCC[C@H](NC(=O)OC(C)(C)C)C(=O)N3C1)CC2` [AR00304103, (1S,4R,6S,14S,18R)-14-tert-Butoxycarbonylamino-18-(2-tert-butylamino-6,7-dihydro-4H-thiazolo[5,4-c]pyridine-5-carbonyloxy)-2,15-dioxo-3,16-diaza-tricyclo[14.3.0.0^4,6]nonadec-7-ene-4-carboxylic acid], the half-maximal inhibitory concentration (IC50) in test [1] was below 10000 nM. The EC50 in test [2] is below 10000 nM.

`CC(C)(C)OC(=O)N[C@H]1CCCCC/C=C\[C@@H]2C[C@@]2(C(=O)NS(=O)(=O)c2ccc(C#N)cc2)NC(=O)[C@@H]2C[C@@H](OC(=O)N3Cc4ccccc4C3)CN2C1=O` [AR00334248, (1S,4R,6S,14S,18R)-1,3-Dihydro-isoindole-2-carboxylic acid 14-tert-butoxycarbonylamino-4-(4-cyano-benzenesulfonylaminocarbonyl)-2,15-dioxo-3,16-diaza-tricyclo[14.3.0.0^4,6]nonadec-7-en-18-yl ester]: the IC50 in test [1] was below 100 nM. Besides, the EC50 in test [2] was below 1000 nM.

Take `COc1ccc(CC(=O)N[C@H]2CCCCC/C=C\[C@@H]3C[C@@]3(C(=O)NS(=O)(=O)C3CC3)NC(=O)[C@@H]3C[C@@H](OC(=O)N4Cc5cccc(F)c5C4)CN3C2=O)cc1` [AR00340156, (1S,4R,6S,14S,18R)-4-Fluoro-1,3-dihydro-isoindole-2-carboxylic acid 4-cyclopropanesulfonylaminocarbonyl-14-[2-(4-methoxy-phenyl)-acetylamino]-2,15-dioxo-3,16-diaza-tricyclo[14.3.0.0^4,6]nonadec-7-en-18-yl ester]: in test [1], the half-maximal inhibitory concentration (IC50) was below 100 nM. The EC50 in test [2] is below 1000 nM.

Regarding `CC(C)(C)OC(=O)N[C@H]1CCCCC/C=C\[C@@H]2C[C@@]2(C(=O)NS(=O)(=O)C2CC2)NC(=O)[C@@H]2C[C@@H](OC(=O)N3Cc4ccccc4C4(CCC4)C3)CN2C1=O` [AR00312024, (1S,4R,6S,14S,18R)-4,4-Spirocyclobutyl-3,4-dihydro-1H-isoquinoline-2-carboxylic acid 14-tert-butoxycarbonylamino-4-cyclopropanesulfonylaminocarbonyl-2,15-dioxo-3,16-diaza-tricyclo[14.3.0.0^4,6]nonadec-7-en-18-yl ester], the 50% inhibitory concentration (IC50) in test [1] was below 100 nM. In test [2], the EC50 is below 100 nM.

For the molecule `O=C(NC1CCOC1)N[C@H]1CCCCC/C=C\[C@@H]2C[C@@]2(C(=O)NS(=O)(=O)C2CC2)NC(=O)[C@@H]2C[C@@H](OC(=O)N3CCc4ccccc4C3)CN2C1=O` (stereo partly drawn) [AR00320222, (1S,4R,6S,14S,18R)-3,4-Dihydro-1H-isoquinoline-2-carboxylic acid 4-cyclopropanesulfonylaminocarbonyl-2,15-dioxo-14-[3-(tetrahydro-furan-3-yl)-ureido]-3,16-diaza-tricyclo[14.3.0.0^4,6]nonadec-7-en-18-yl ester], in test [1], the IC50 was below 100 nM. In test [2], the EC50 was below 10000 nM.
